{
  "source": "patent US20110220154A1",
  "about": "“Dental Appliance Cleanser” (priority 2008, published 2011)",
  "system": "Candida albicans",
  "assay": "in vitro suspension test representing in-use conditions",
  "assay_type": "cell-based",
  "settings": "5 min",
  "protocol": "The synergistic activity of the cleanser formulation was assessed using an in vitro suspension test representing in-use conditions. In-use conditions represent the actual consumer use of the cleanser (e.g., dissolved tablet concentrations, temperature, and contact time) versus Candida albicans as a relevant oral organism for the denture wearer. To 150 mL of 40° C. water at time zero, the denture cleanser was added, followed by 2 mL of a 10^8 cfu/mL test suspension. After 5 minutes, an aliquot of the solution was removed, neutralized and plated in order to evaluate the amount or log reduction of the test organism.",
  "data": [
    {"smiles": "[H]/N=C(\\N/C(=N/[H])NCCCCCCNC(=N)NC(=N)Nc1ccc(Cl)cc1)Nc1ccc(Cl)cc1", "note": "[Test Formulation 4, 1,6-di-4′-chlorophenyldiguanidohexane]", "values": [
      {"measurement": "antimicrobial activity", "result": "does not demonstrate any antimicrobial activity"}
    ]}
  ]
}
